From patent US11744844B2, “Selective estrogen receptor degraders” (Eli Lilly and Company, priority 2021, dated 2023) come the findings set out here.

Structures can show the parent of a compound that is named as a salt.

This assay deals with T1, Y537N mutant ERα receptor (Homo sapiens, UniProt P03372, Y537N).
T1 construct: generated by CRISPR/Cas9 gene editing of ESR1 gene in MCF7 cells, clone #682; endogenous in cells; host or cells: MCF7-ESR1 Y537N-682 (CRISPR/Cas9-edited MCF7, clone #682)
T1 sequence (P03372 1-595 Y537N): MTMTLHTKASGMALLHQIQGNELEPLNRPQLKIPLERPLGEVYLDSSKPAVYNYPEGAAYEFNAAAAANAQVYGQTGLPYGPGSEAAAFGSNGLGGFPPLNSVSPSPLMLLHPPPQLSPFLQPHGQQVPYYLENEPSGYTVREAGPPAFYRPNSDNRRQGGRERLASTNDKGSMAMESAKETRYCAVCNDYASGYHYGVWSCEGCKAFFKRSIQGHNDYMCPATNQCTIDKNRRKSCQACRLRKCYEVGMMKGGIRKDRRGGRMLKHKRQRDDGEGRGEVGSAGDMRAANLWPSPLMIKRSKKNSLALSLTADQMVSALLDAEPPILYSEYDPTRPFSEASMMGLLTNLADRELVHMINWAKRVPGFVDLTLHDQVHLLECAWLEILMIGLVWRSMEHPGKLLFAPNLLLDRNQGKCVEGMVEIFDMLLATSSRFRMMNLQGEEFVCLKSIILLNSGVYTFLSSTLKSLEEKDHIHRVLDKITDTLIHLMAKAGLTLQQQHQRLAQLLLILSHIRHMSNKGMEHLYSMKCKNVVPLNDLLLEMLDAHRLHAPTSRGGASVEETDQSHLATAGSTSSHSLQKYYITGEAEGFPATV
The experiment in a line: PRα inhibition (ERα functional antagonism) cell assay in MCF7-ESR1 Y537N 682 CRISPR cells. The format is cell-based. The note with it: MCF7 Y537N 682 CRISPR cells (heterozygous mutant), 72 hours; read-out: Relative IC50, PRα inhibition (ERα functional antagonism). From the text: The purpose of the following PRα inhibition (ERα functional antagonism) cell assay is to determine the antagonistic activity of a test compound against the Y537N mutant ERα receptor. An antagonist in this assay is expected to block the function of the ERα receptor.
Culture MCF7-ESR1 Y537N-682 (generated by CRISPR/Cas9 gene editing of ESR1 gene in MCF7 cells, clone #682) in DMEM media supplemented with 10% FBS and 1% penicillin/streptomycin antibiotics and plate the cells (prior to becoming 70% confluent) in 384-well flat-bottom plates at a density of 4,000 cells per well in DMEM phenol red free media 10% FBS (20 μL volume) (charcoal stripped). Incubate the cells overnight in a cell culture incubator (5% CO2, 95% relative humidity and 37° C.) and allow the cells to attach to the plate. The following day dose the cells with the test compound. Use an Echo 555 acoustic dispenser to prepare compound serial dilutions (1:3) in a range from 6 μM to 0.0003 μM. […]
The following day wash the cells with PBS […] (2×20 μL) and incubate with secondary antibody (20 μL/well) (1:1000 dilution, Goat anti-rabbit IgM ALEXA FLUOR™ 488) in PBS 1% BSA for 105 minutes at room temperature. […] Scan the plates with ACUMEN EXPLORER™ [Laser-scanning fluorescence microplate cytometer manufactured by TTP LABTECH LTD] to measure PRα. […]

Take `O=S(=O)(O)Oc1ccc2c3c(cnc2c1)-c1ccc(C(F)(F)F)cc1O[C@@H]3c1ccc(OCCN2CC(CF)C2)cc1` [Example 1, [(5R)-5-[4-[2-[3-(Fluoromethyl)azetidin-1-yl]ethoxy]phenyl]-8-(trifluoromethyl)-5H-chromeno[4,3-c]quinolin-2-yl]hydrogen sulfate]: the half-maximal inhibitory concentration (IC50) (usually the concentration that gives 50% inhibition) came out at 330 ± 116 nM.

As to `O=C(O)[C@H]1O[C@@H](Oc2ccc3c4c(cnc3c2)-c2ccc(C(F)(F)F)cc2O[C@@H]4c2ccc(OCCN3CC(CF)C3)cc2)[C@H](O)[C@@H](O)[C@@H]1O` [Example 2, (2S,3S,4S,5R,6S)-6-[[(5R)-5-[4-[2-[3-(Fluoromethyl)azetidin-1-yl]ethoxy]phenyl]-8-(trifluoromethyl)-5H-chromeno[4,3-c]quinolin-2-yl]oxy]-3,4,5-trihydroxy-tetrahydropyran-2-carboxylic acid], the IC50 amounted to 470 ± 58 nM.
